Results from patent US6146868A, “Glucuronoxylomannan (GXM)-O-acetylhydrolase of cryptococcus neoformans and uses thereof” (Research Development Foundation, priority 1999, dated 2000).

What was measured:
[1] = test system: recombinant glucuronoxylomannan (GXM)-O-acetylhydrolase, SEQ ID No. 31 (His-tagged short clone expressed in E. coli); assay: PNP-acetate plate assay, kinetics (Km), recombinant enzyme; format: biochemical, mixed unknown bacterial culture from sewage; conditions: pH 7.2, A405 kinetic reading, hyperbolic regression, read-out: Km for PNP-acetate (KPNPA)
Experimental: PNP-Carboxyl Ester Assay: This assay determines specificity of enzymatic activity for five different PNP-fatty acid esters: PNP-acetate (2 carbon), PNP-propionate (3 carbon), PNP-butyrate (4 carbon), PNP-laurate (12 carbon), and PNP-palmitate (16 carbon). The assay was set up in a 96-well plate and read at 405 n m on a BIO-TEK Ceres 900 plate reader. Each reaction consisted of: 200 μl PBS buffer, pH 7.2; 50 μl PNP-ester solution, 0.77 mM; and 50 μl of enzyme (containing various levels of enzyme) added just prior to reading at 405 nm. Non-enzymic hydrolysis was measured in a solution that consisted of 200 μl PBS buffer, pH 7.2; 50 μl PNP-ester solution, 0.77 mM; and 50 μl PBS, pH 7.2, the buffer replacing the enzyme. […] This assay was read within 30 seconds in a single point manner as the enzyme works rapidly on this substrate.
PNP-Acetate Assay: This assay was routinely used to determine enzymatic activity in samples of recombinant enzyme at the various steps in its expression and purification as described above, but with the PNP-acetate substrate only. This reaction was measured at pH=6.2 to 8.2. […]
Kinetics: Kinetics of the enzyme were investigated through use of the PNP-acetate plate assay and the competition assay described above. The plates were read on the BIO-TEK Ceres 900 plate reader at 405 nm with a kinetic protocol that took readings every 20 seconds for 3 minutes. […]

[2] = test system: native (wild-type) glucuronoxylomannan (GXM)-O-acetylhydrolase purified from mixed unknown bacterial culture; assay: PNP-acetate plate assay, kinetics (Km), native enzyme; format: biochemical, mixed unknown bacterial culture from sewage; conditions: pH 7.2, A405 kinetic reading, hyperbolic regression, read-out: Km for PNP-acetate (KPNPA)
Source text: Purification, LysC Degradation and Amino Acid Sequencing of Wild-Type Enzyme: The native GXM O-acetylhydrolase was purified from a mixed unknown bacterial culture that was collected from sewage. The purification was achieved by the following steps: cholate extraction, ammonium sulfate precipitation, molecular sieve chromatography, and ion exchange on a mono Q column followed by a mono S column.
PNP-Carboxyl Ester Assay: This assay determines specificity of enzymatic activity for five different PNP-fatty acid esters: PNP-acetate (2 carbon), PNP-propionate (3 carbon), PNP-butyrate (4 carbon), PNP-laurate (12 carbon), and PNP-palmitate (16 carbon). The assay was set up in a 96-well plate and read at 405 n m on a BIO-TEK Ceres 900 plate reader. Each reaction consisted of: 200 μl PBS buffer, pH 7.2; 50 μl PNP-ester solution, 0.77 mM; and 50 μl of enzyme (containing various levels of enzyme) added just prior to reading at 405 nm. Non-enzymic hydrolysis was measured in a solution that consisted of 200 μl PBS buffer, pH 7.2; 50 μl PNP-ester solution, 0.77 mM; and 50 μl PBS, pH 7.2, the buffer replacing the enzyme. Standard curves were obtained by measurement of the A405 of solutions of known amounts of para-nitrophenol. This assay was read within 30 seconds in a single point manner as the enzyme works rapidly on this substrate. […]

**Q.** For `CC(=O)Oc1ccc([N+](=O)[O-])cc1` [PNP-acetate], which Km [1] is on record?
**A.** Its Km is 1340 µM.

**Q.** What about the Km [2] of the same compound?
**A.** Its Km is 1260 µM.
